Key:
Format in all cases: cell-based
[1] = tested on: Citrobacter diversus; test: MIC against Gram-negative bacteria: Citrobacter diversus; conditions: for MIC / MIC (μg/mL) C. diversus: C. diversus
In short: (§1)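 Bacteria grown in LB at 37° C with shaking to McFarland 0.5, pelleted and resuspended in fresh LB, then seeded at 5×10^5 CFU/mL per well. Purified recombinant human EGF domain proteins were two-fold serially diluted in triplicate and plates shaken at 37° C, 175 rpm. MIC is the lowest protein concentration with no bacterial growth.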

[2] = tested on: E. coli DH5α; test: Antibacterial activity: MIC and growth curve against E. coli DH5α in 96-well plate; conditions: minimal inhibitory concentration against E. coli DH5α; 96-well plate, 5×10^5 CFU/mL, 37° C., judged after 8 h
In short: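 Log-phase DH5α (OD600 about 0.5, 37° C, 185 rpm in LB) was pelleted, resuspended in fresh LB and seeded at 5×10^5 CFU/mL with recombinant protein at 50, 25 and 12.5 μg/mL (two-fold series), in triplicate. Plates were shaken at 175 rpm, 37° C, and OD600 was read every 30 min. MIC was the lowest concentration with no growth.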

[3] = tested on: Moraxella catarrhalis; test: MIC against Gram-negative bacteria: Moraxella catarrhalis; conditions: for MIC / MIC (μg/mL) M. catarrhalis: M. catarrhalis
In short: as §1

[4] = tested on: Klebsiella pneumonia; test: MIC against Gram-negative bacteria: Klebsiella pneumonia; conditions: for MIC / MIC (μg/mL) K. pneumonia: K. pneumonia
In short: as §1

[5] = tested on: Aeromonas hydrophila; test: MIC against Gram-negative bacteria: Aeromonas hydrophila; conditions: for MIC / MIC (μg/mL) A. hydrophila: A. hydrophila
In short: as §1

[6] = tested on: Serratia marcescens; test: MIC against Gram-negative bacteria: Serratia marcescens; conditions: for MIC / MIC (μg/mL) S. marcescens: S. marcescens
In short: as §1

[7] = tested on: Enterobacter cloacae; test: MIC against Gram-negative bacteria: Enterobacter cloacae; conditions: for MIC / MIC (μg/mL) E. cloacae: E. cloacae
In short: as §1

[8] = tested on: Proteus vulgaris; test: MIC against Gram-negative bacteria: Proteus vulgaris; conditions: for MIC / MIC (μg/mL) P. vulgaris: P. vulgaris
In short: as §1

[9] = tested on: E. coli BL21; test: MIC against Gram-negative bacteria: E. coli BL21
In short: as §1

[10] = tested on: Proteus mirabilis; test: MIC against Gram-negative bacteria: Proteus mirabilis; conditions: for MIC / MIC (μg/mL) P. mirabilis: P. mirabilis
In short: as §1

[11] = tested on: Pseudomonas aeruginosa; test: MIC against Gram-negative bacteria: Pseudomonas aeruginosa; conditions: for MIC / MIC (μg/mL) P. aeruginosa: P. aeruginosa
In short: as §1

[12] = 10 h cultivation at 37° C., 5×10^5 CFU/mL
[13] = E. coli BL21, 10 h cultivation at 37° C., 5×10^5 CFU/mL
[14] = 96-well plate, 5×10^5 CFU/mL, 37° C., 10 h

Question: Which results are given for “PRT1012 (APKGCGPPSPCLYNGSCSETTGLGGPGFRCSCPHSSPGPRCQ; listed as Homo sapiens)”?
Answer: MIC ([1]; 10 h cultivation at 37° C.): 50 µg/mL; MIC [2]: 12.5 µg/mL; MIC ([3]; 10 h cultivation at 37° C.): 12.5 µg/mL; MIC ([4]; 10 h cultivation at 37° C.): 12.5 µg/mL; MIC ([5]; 10 h cultivation at 37° C.): 12.5 µg/mL; MIC ([6]; 10 h cultivation at 37° C.): 12.5 µg/mL; MIC ([7]; 10 h cultivation at 37° C.): 50 µg/mL; MIC ([8]; 10 h cultivation at 37° C.): 25 µg/mL; MIC ([9]; E. coli BL21, 10 h cultivation at 37° C.): 50 µg/mL; MIC ([10]; 10 h cultivation at 37° C.): 12.5 µg/mL; MIC ([11]; 10 h cultivation at 37° C.): 12.5 µg/mL

Question: What does the source list for “PRT1357 (GQHSCPSDCNNLGQCVSGRCICNEGYSGEDCS; listed as Homo sapiens)”?
Answer: MIC against C. diversus ([1]; Citrobacter diversus, 5×10^5 CFU/mL, 10 h cultivation at 37° C.): 50 µg/mL; MIC [2]: 50 µg/mL; MIC against M. catarrhalis ([3]; Moraxella catarrhalis, 5×10^5 CFU/mL, 10 h cultivation at 37° C.): 12.5 µg/mL; MIC against K. pneumonia ([4]; Klebsiella pneumonia, 5×10^5 CFU/mL, 10 h cultivation at 37° C.): 50 µg/mL; MIC against A. hydrophila ([5]; Aeromonas hydrophila, 5×10^5 CFU/mL, 10 h cultivation at 37° C.): 100 µg/mL; MIC against S. marcescens ([6]; Serratia marcescens, 5×10^5 CFU/mL, 10 h cultivation at 37° C.): 12.5 µg/mL; MIC against E. cloacae ([7]; Enterobacter cloacae, 5×10^5 CFU/mL, 10 h cultivation at 37° C.): 25 µg/mL; MIC against P. vulgaris ([8]; Proteus vulgaris, 5×10^5 CFU/mL, 10 h cultivation at 37° C.): 50 µg/mL; MIC against E. coli BL21 ([9]; E. coli BL21, 5×10^5 CFU/mL, 10 h cultivation at 37° C.): 12.5 µg/mL; MIC against P. mirabilis ([10]; Proteus mirabilis, 5×10^5 CFU/mL, 10 h cultivation at 37° C.): 12.5 µg/mL; MIC against P. aeruginosa ([11]; Pseudomonas aeruginosa, 5×10^5 CFU/mL, 10 h cultivation at 37° C.): 25 µg/mL

Question: “PRT241 (DTDECQIAGVCQQMCVNYVGGFECYCSEGHELEADGISCS; listed as Homo sapiens)” was tested. Which “MIC (μg/mL) C. diversus” value [1, 12] did it give?
Answer: 12.5 µg/mL

Question: What about the MIC [2] of the same substance?
Answer: 12.5 µg/mL

Question: And the “MIC (μg/mL) M. catarrhalis” value [3, 12]?
Answer: 25 µg/mL

Question: What about the “MIC (μg/mL) K. pneumonia” value [4, 12] of the same substance?
Answer: 12.5 µg/mL

Question: And the “MIC (μg/mL) A. hydrophila” value [5, 12]?
Answer: 12.5 µg/mL

Question: And the “MIC (μg/mL) S. marcescens” value [6, 12]?
Answer: 50 µg/mL

Question: What about the “MIC (μg/mL) E. cloacae” value [7, 12] of the same substance?
Answer: 12.5 µg/mL

Question: And the “MIC (μg/mL) P. vulgaris” value [8, 12]?
Answer: 25 µg/mL

Question: And the “MIC (μg/mL) E. coli BL21” value [9, 13]?
Answer: 12.5 µg/mL

Question: And the “MIC (μg/mL) P. mirabilis” value [10, 12]?
Answer: 12.5 µg/mL

Question: And the “MIC (μg/mL) P. aeruginosa” value [11, 12]?
Answer: 12.5 µg/mL

Question: What does the source list for “PRT637 (DIDECVNNTVCDSHGFCDNTAGSFRCLCYQGFQAPQDG; listed as Homo sapiens)”?
Answer: MIC C. diversus [1, 14]: 50 µg/mL; MIC [2]: 25 µg/mL; MIC M. catarrhalis [3, 14]: 25 µg/mL; MIC K. pneumonia [4, 14]: 50 µg/mL; MIC A. hydrophila [5, 14]: 25 µg/mL; MIC S. marcescens [6, 14]: 50 µg/mL; MIC E. cloacae [7, 14]: 12.5 µg/mL; MIC P. vulgaris [8, 14]: 25 µg/mL; MIC E. coli BL21 [9, 14]: 12.5 µg/mL; MIC P. mirabilis [10, 14]: 12.5 µg/mL; MIC P. aeruginosa [11, 14]: 25 µg/mL

Question: How did the “MIC (μg/mL) C. diversus” value [1, 12] turn out when “PRT164 (YKDPCANVSCLNGATCDSDGLNGTCICAPGFTGEECD; listed as Homo sapiens)” was run?
Answer: 12.5 µg/mL

Question: What about the MIC [2] of the same substance?
Answer: 25 µg/mL

Question: What about the “MIC (μg/mL) M. catarrhalis” value [3, 12] of the same substance?
Answer: 50 µg/mL

Question: What about the “MIC (μg/mL) K. pneumonia” value [4, 12] of the same substance?
Answer: 12.5 µg/mL

Question: And the “MIC (μg/mL) A. hydrophila” value [5, 12]?
Answer: 50 µg/mL

Question: And the “MIC (μg/mL) S. marcescens” value [6, 12]?
Answer: 12.5 µg/mL

Question: What about the “MIC (μg/mL) E. cloacae” value [7, 12] of the same substance?
Answer: 25 µg/mL

Question: And the “MIC (μg/mL) P. vulgaris” value [8, 12]?
Answer: 50 µg/mL

Question: What about the “MIC (μg/mL) E. coli BL21” value [9, 13] of the same substance?
Answer: 50 µg/mL

Question: What about the “MIC (μg/mL) P. mirabilis” value [10, 12] of the same substance?
Answer: 12.5 µg/mL

Question: What about the “MIC (μg/mL) P. aeruginosa” value [11, 12] of the same substance?
Answer: 25 µg/mL

Question: How did the MIC [1, 12] turn out when “PRT442 (DINECEQVPKPCAHQCSNTPGSFKCICPPGQHLLGDGKSCA; listed as Homo sapiens)” was run?
Answer: 25 µg/mL

Question: What about the MIC [2] of the same substance?
Answer: 12.5 µg/mL

Question: And the MIC [3, 12]?
Answer: 12.5 µg/mL

Question: And the MIC [4, 12]?
Answer: 12.5 µg/mL

Question: What about the MIC [5, 12] of the same substance?
Answer: 50 µg/mL

Question: What about the MIC [6, 12] of the same substance?
Answer: 25 µg/mL

Question: And the MIC [7, 12]?
Answer: 25 µg/mL

Question: What about the MIC [8, 12] of the same substance?
Answer: 12.5 µg/mL

Question: What about the MIC [9, 13] of the same substance?
Answer: 50 µg/mL

Question: What about the MIC [10, 12] of the same substance?
Answer: 12.5 µg/mL

Question: And the MIC [11, 12]?
Answer: 25 µg/mL

Question: Which “MIC against C. diversus” value [1, 14] does the source give for “PRT530 (CSCDPEHADGCEQGSGRCHCKPNFHGDNCEKCAIGYYNFPFCLR; listed as Homo sapiens)” here?
Answer: 25 µg/mL

Question: And the MIC [2]?
Answer: 50 µg/mL

Question: What about the “MIC against M. catarrhalis” value [3, 14] of the same substance?
Answer: 50 µg/mL

Question: What about the “MIC against K. pneumonia” value [4, 14] of the same substance?
Answer: 50 µg/mL

Question: What about the “MIC against A. hydrophila” value [5, 14] of the same substance?
Answer: 12.5 µg/mL

Question: What about the “MIC against S. marcescens” value [6, 14] of the same substance?
Answer: 25 µg/mL

Question: And the “MIC against E. cloacae” value [7, 14]?
Answer: 25 µg/mL

Question: And the “MIC against P. vulgaris” value [8, 14]?
Answer: 12.5 µg/mL

Question: What about the “MIC against E. coli BL21” value [9, 14] of the same substance?
Answer: 12.5 µg/mL

Question: What about the “MIC against P. mirabilis” value [10, 14] of the same substance?
Answer: 25 µg/mL

Question: And the “MIC against P. aeruginosa” value [11, 14]?
Answer: 25 µg/mL

Source: patent US9833497B2, “Human originated EGF domain proteins and use of the same” (CHENGDU SOURCEBIO LIMITED-LIABILITY COMPANY, priority 2013, dated 2017)
